The values below come from patent publication US6451732B1, “Herbicidal compositions of glyphosate trimesium” (Syngenta, Limited, priority 1999, dated 2002).

The subject of assay [1] is glyphosate tolerant corn. Conditions: postemergence.
Method: (§2) The soil was fortified with fertilizer (10-10-10) prior to seeding The compounds were dissolved in water and applied with a carrier volume of 200 L/ha. All treatments were replicated four times.
(§3) The pots were placed in a greenhouse and maintained under good growing conditions. The greenhouse evironmental systems provided the plants with natural and artificial lighting to attaim 12 hours of light per day. Day and night temperatures were maintained at 29° and 21° C. respectively.
(§4) Plants were grown to the V2 or 2 leaf stage prior to compound application. Plants were sprayed 30.5cm (12 inches) above the foliage with the spray solution as prepared for the pre-emergence test. Treated plants were then returned to a greenhouse and watered daily without wetting the foliage. Injury to plants was evaluated 5 days after treatment (“CDAT”) and 13 DAT. Injury was evaluated as percent control being the total injury to the plants due to all factors including: inhibited emergence, stunting, malformation, albinism, chlorosis, and other types of plant injury.
In assay [2] the test system is glyphosate tolerant soybeans. The assay can be described thus: Greenhouse postemergence injury to glyphosate tolerant soybeans, glyphosate trimesium and bentazon (Example 2).
Method: as §2, §3, §4
Assay [3] has as its system glyphosate tolerant soybeans. The following applies: postemergence.
Method: as §2, §3, §4
The test system of assay [4] is GLXMA P9333. The assay can be described thus: Field plot injury rating (Example 3). Type of assay: in vivo, glyphosate tolerant soybeans. Conditions: Glyphosate TMS 1.5 lb/acre, with ammonium sulfate. The text has this:
(§1) In plots located in Champaign, Ill. (three replications), seeds of the following weed species were planted: Digitaria sanguinalis (“DIGSA”); Setaria faberi (“SETFA”); Setaria glauca (“SETLU”);Echinochloa crusgalli a crusgalli (“ECHCG”); Sorghum vulgare (“SORVU”); Sida spinosa (“SIDSP”); Ipomoea hederacea (“IPOHE”); Amaranthus retroflexus (“AMARE”); Xanthium strumarium (“XANST”); Helianthus annuns (“HELAN”) and Abutilon theophrasti (“ABUTH”). The plots were also planted with two varieties of glyphosate tolerant soybeans (“GLXMA P9294” and “GLXMA P9333”). When the soybeans had reached the 4-5 trifoliate stage, the plots were treated with glyphosate trimesium alone or glyphosate trimesium+bentazon, at the application rates indicated in Table 3. Injury to the species in each plot was tated 7 and 18 dats after application (DAA) of the glyphosate trimesium with or without bentazon and the results are shown in Table 3. The results shown in Table 3 are the mean of three replications.

In assay [5] the test system is GLXMA P9294. The assay can be described thus: Field plot injury rating (Example 3). Type of assay: in vivo, glyphosate tolerant soybeans. The following applies: Glyphosate TMS 1.5 lb/acre, with ammonium sulfate.
Text: as §1

In assay [6] the test system is Echinochloa crusgalli (ECHCG). As to the kind of experiment: Field plot injury rating (Example 3). Type of assay: in vivo. Conditions: Glyphosate TMS 1.5 lb/acre, with ammonium sulfate.
Text: as §1

The subject of assay [7] is Setaria glauca (SETLU). As to the kind of experiment: Field plot injury rating (Example 3). Type of assay: in vivo. Conditions: Glyphosate TMS 1.5 lb/acre, with ammonium sulfate.
Text: as §1

Assay [8] deals with Setaria faberi (SETFA). The assay can be described thus: Field plot injury rating (Example 3). Type of assay: in vivo. The following applies: Glyphosate TMS 1.5 lb/acre, with ammonium sulfate.
Text: as §1

In assay [9] the test system is Amaranthus retroflexus (AMARE). The assay can be described thus: Field plot injury rating (Example 3). Type of assay: in vivo. The following applies: Glyphosate TMS 1.5 lb/acre, with ammonium sulfate.
Text: as §1

Assay [10] relates to Ipomoea hederacea (IPOHE). The assay can be described thus: Field plot injury rating (Example 3). Type of assay: in vivo. The following applies: Glyphosate TMS 1.5 lb/acre, with ammonium sulfate.
Text: as §1

Assay [11] deals with Sida spinosa (SIDSP). The assay can be described thus: Field plot injury rating (Example 3). Type of assay: in vivo. Conditions: Glyphosate TMS 1.5 lb/acre, with ammonium sulfate.
Text: as §1

The test system of assay [12] is Digitaria sanguinalis (DIGSA). As to the kind of experiment: Field plot injury rating (Example 3). In kind it is in vivo. The following applies: Glyphosate TMS 1.5 lb/acre, with ammonium sulfate.
Text: as §1

Assay [13] relates to Abutilon theophrasti (ABUTH). The assay can be described thus: Field plot injury rating (Example 3). Type of assay: in vivo. The following applies: Glyphosate TMS 1.5 lb/acre, with ammonium sulfate.
Text: as §1

Assay [14] deals with Sorghum vulgare (SORVU). The assay can be described thus: Field plot injury rating (Example 3). Conditions: Glyphosate TMS 1.5 lb/acre, with ammonium sulfate. Type of assay: in vivo.
Text: as §1

Assay [15] has as its system Helianthus annuns (HELAN). As to the kind of experiment: Field plot injury rating (Example 3). In kind it is in vivo. The following applies: Glyphosate TMS 1.5 lb/acre, with ammonium sulfate.
Text: as §1

Assay [16] relates to Xanthium strumarium (XANST). The assay can be described thus: Field plot injury rating (Example 3). In kind it is in vivo. The following applies: Glyphosate TMS 1.5 lb/acre, with ammonium sulfate.
Text: as §1

Where [17] appears, read: Glyphosate trimesium 750 g/ha, Bentazon 0 g/ha.
The mark [18] stands for this setting: Glyphosate trimesium 1500 g/ha, Bentazon 0 g/ha.
The mark [19] stands for this setting: Glyphosate trimesium 3000 g/ha, Bentazon 0 g/ha.

Read-outs that look alike come from different tables or passages of the source.

Turning to `CC(C)N1C(=O)c2ccccc2NS1(=O)=O` [Bentazon, bentazon], the “Corn injury (percent control) 5 DAT” value came to 0% in assay [1] (TMS 0 g/ha, Bentazon 250 g/ha) and 0% in assay [1] (TMS 0 g/ha, Bentazon 500 g/ha). The “Corn injury (percent control) 13 DAT” value worked out at 0% in [1] (TMS 0 g/ha, Bentazon 250 g/ha) and 0% in assay [1] (TMS 0 g/ha, Bentazon 500 g/ha). The “Soybean injury (percent control) 5 DAT” value in assay [2] (Glyphosate trimesium 0 g/ha, Bentazon 4 g/ha) was 0%; in assay [2] (Glyphosate trimesium 0 g/ha, Bentazon 8 g/ha), 0%; in [2] (Glyphosate trimesium 0 g/ha, Bentazon 16 g/ha), 0%; in assay [2] (Glyphosate trimesium 0 g/ha, Bentazon 32 g/ha), 0%; in [2] (Glyphosate trimesium 0 g/ha, Bentazon 64 g/ha), 0%; in [3] (TMS 0 g/ha, Bentazon 250 g/ha) it was 2%. Also, the “Soybean injury (percent control) 5 DAT” value in assay [3] (TMS 0 g/ha, Bentazon 500 g/ha) is 8%.

As to `C[S+](C)C.O=C([O-])CNCP(=O)(O)O` [Glyphosate trimesium, trimethylsulphonium salt of N-phosphonomethylglycine], in assay [4] (7 DAA), the “Injury GLXMA P9333 7 DAA” value is recorded as 5. Moreover, the “Injury GLXMA P9333 18 DAA” value in assay [4] (18 DAA) turned out to be 6. Further, in assay [5] (7 DAA), the “Injury GLXMA P9294 7 DAA” value is listed as 8. Also, the “Injury GLXMA P9294 18 DAA” value in assay [5] (18 DAA) turned out to be 9. Further, the “Soybean injury (percent control) 5 DAT” value in assay [2] (setting [17]) came to 13%; in assay [2] (setting [18]), 37%; in assay [2] (setting [19]), 58%. Moreover, the “Soybean injury (percent control) 13 DAT” value in assay [2] (setting [17]) is recorded as 7%; in [2] (setting [18]), 27%; in [2] (setting [19]), 35%. Besides, the “Injury ECHCG 7 DAA” value in assay [6] (7 DAA) is recorded as 67. Moreover, the “Injury ECHCG 18 DAA” value in assay [6] (18 DAA) was determined as 94. In addition, the “Injury SETLU 7 DAA” value in [7] (7 DAA) is reported as 95. The “Injury SETLU 18 DAA” value in [7] (18 DAA) is recorded as 100. The “Injury SETFA 7 DAA” value in [8] (7 DAA) is 96. Moreover, the “Injury SETFA 18 DAA” value in assay [8] (18 DAA) is listed as 100. In addition, in assay [9] (7 DAA), the “Injury AMARE 7 DAA” value was determined as 100. For the same molecule, in assay [9] (18 DAA), the “Injury AMARE 18 DAA” value is on record as 100. Moreover, the “Injury IPOHE 7 DAA” value in assay [10] (7 DAA) is 43. Besides, the “Injury IPOHE 18 DAA” value in [10] (18 DAA) was 68. For the same molecule, the “Injury SIDSP 7 DAA” value in [11] (7 DAA) came to 60. Also, in assay [11] (18 DAA), the “Injury SIDSP 18 DAA” value is listed as 83. The “Injury DIGSA 7 DAA” value in [12] (7 DAA) was 99. In addition, the “Injury DIGSA 18 DAA” value in assay [12] (18 DAA) is 100. The “Injury ABUTH 7 DAA” value in [13] (7 DAA) is 40. The “Injury ABUTH 18 DAA” value in [13] (18 DAA) was 80. Moreover, in [14] (7 DAA), the “Injury SORVU 7 DAA” value amounted to 93. In addition, the “Injury SORVU 18 DAA” value in [14] (18 DAA) was 100. Moreover, the “Injury HELAN 7 DAA” value in assay [15] (7 DAA) came out at 99. In assay [15] (18 DAA), the “Injury HELAN 18 DAA” value is recorded as 100. Besides, the “Injury XANST 7 DAA” value in [16] (7 DAA) was determined as 99. Moreover, the “Injury XANST 18 DAA” value in assay [16] (18 DAA) was found to be 100.

Consider `C[S+](C)C.[Cl-]` [TMS, trimethylsulphonium chloride], for which the “Corn injury (percent control) 5 DAT” value in [1] (TMS 420 g/ha, Bentazon 0 g/ha) was determined as 14%; in [1] (TMS 840 g/ha, Bentazon 0 g/ha) it was 19%. The “Corn injury (percent control) 13 DAT” value was determined as 48% in [1] (TMS 420 g/ha, Bentazon 0 g/ha) and 60% in [1] (TMS 840 g/ha, Bentazon 0 g/ha). Moreover, the “Soybean injury (percent control) 5 DAT” value in assay [3] (TMS 420 g/ha, Bentazon 0 g/ha) is recorded as 15%; in assay [3] (TMS 840 g/ha, Bentazon 0 g/ha), 24%. Also, the “Soybean injury (percent control) 13 DAT” value in assay [3] (TMS 420 g/ha, Bentazon 0 g/ha) is 13%; in assay [3] (TMS 840 g/ha, Bentazon 0 g/ha), 18%.
